Values joined by “and” are separate entries in the source; they are usually repeats but may differ in a detail not shown here. Equal values may be shown once.
Assays:
melanocytes B16 = assay: Inhibition of melanin synthesis; whitening activity on melanocytes B16; format: cell-based; conditions: for Melanin / Proteins: % against control, 3 days
Description: The whitening activity of the extract was evaluated on a cell line of melanocytes (melanocytes B16 were used; this is a cell line known to the skilled person in the art). The melanocytes were exposed to the extract for 3 days at 37° C. and then the melanocytes were homogenised in 1 n NaOH and the level of melanin was evaluated by measuring the optical density at 475 nm. The level of proteins in the cells was determined by Bradford's method.
The results are expressed in % refering of the control and the whitening potential is characterised by the ratio of melanin level by the protein level (or melanin/protein) for a non toxic concentration of the tested compound.

human fibroblasts = assay: Protection of human fibroblasts against UV-A radiation (released MDA, cellular proteins); format: cell-based; conditions: % versus non-irradiated control; UV-A 20 J/cm2; dose 0.0003 % w/v
Description: The aim of this test is to evaluate the capacities against oxidative stress of the extract by a test on a cell culture of human fibroblasts in vitro. This test in vitro evaluates the capacities of cytophotoprotection of human fibroblasts against UV-A radiation. […] The formed lipoperoxydes split in malondialdehyde responsible of the reticulation of many biological molecules such as proteins (inhibition of enzymes) and nucleic bases (mutagenesis).
The fibroblasts were seeded in a defined culture medium with foetal calf serum (FCS). […] At the end of the irradiation, the level of MDA (malondialdehyde) was measured in the supernatant by a chemical reaction of MDA with thiobarbituric acid which produces a coloured compound the concentration of which was determined by measuring optical density and the level of proteins was measured in the cell homogenate by Bradford's method. Bradford's method is a known method to quantify the level of proteins (Bradford M M., A rapid and sensitive method for the quantification of microgram quantities of protein utilizing the principle of protein-dye binding. Anal. Biochem., Vol 72, pages 248 to 254, 1976).
The results are expressed as % versus the irradiated control or MDA, and the non-irradiated control for proteins then as an average value of 2 tests in triplicate: […]

`OC[C@H]1O[C@@H](Oc2ccc(O)cc2)[C@H](O)[C@@H](O)[C@@H]1O` [Arbutin] was tested, and the Melanin (melanocytes B16; dose 0.2 % w/v) was 54%, the Proteins (melanocytes B16; dose 0.2 % w/v) was 86% and the “Index = Proteins/Melanin” value (melanocytes B16; dose 0.2 % w/v) was 1.60.

For `O=c1cc(CO)occ1O` [Kojic acid], the Melanin (melanocytes B16; dose 0.03 % w/v) was 26%, the Proteins (melanocytes B16; dose 0.03 % w/v) was 89% and the “Index = Proteins/Melanin” value (melanocytes B16; dose 0.03 % w/v) was 3.37.

For vitamin E, the “Cellular Proteins” value (human fibroblasts) was 110% and 96%.
